Source: article PMC11555231 (Nature Communications, 2024)
Bridge positions count the residues as written; N and C are the ends. Square brackets hold non-standard residues; d marks the D form. Peptide text beside a SMILES is read from it.

Tests used:
HaLo-GFP-mito HeLa cells = assay: Chloroalkane penetration assay (CAPA); format: in vitro ADME; details: for CP50: 4 h in Opti-MEM, 37 °C, chase HaLo-Tag TMR ligand 5 µM 15 min, mean ± SEM of three independent experiments; for CP50 at 4 °C relative to 37 °C: peer review response
Description: Following the addition of chloroacetyl-NHS to the N-terminal amino group, Cys(mmt) was selectively deprotected using 1% TFA, 5% triisopropylsilane in DCM (30 min, RT). Peptides were then cyclised on resin using 2% diisopropylethylamine in DMF overnight. Following cyclisation, Lys(ivDde) was deprotected using 2% hydrazine in DMF. The resin was then washed (3 x DCM, 3 x DMF) before on-resin coupling of chloroalkane carboxylic acid was performed on the lysine side chain using Hexafluorophosphate Azabenzotriazole Tetramethyl Uronium / diisopropylethylamine in DMF for 2 h. Global deprotection and purification were then carried out as described above. Chloroalkane carboxylate was synthesised as previously described.
CAPA assays were performed following the protocol published in ref. [51]. In brief, 40,000 HaLo- GFP-mito HeLa cells were seeded in a 96-well plate. Twenty-four hours later, cells were treated with different concentrations of chloroalkane-tagged peptides (100 µM to 200 nM for PADI4_3 and PADI4_3i and 50 µM to 100 nM for PADI4_11 and PADI4_11i) for 4 h in Opti-MEM. Media containing peptides was then removed, and cells were incubated with Opti-MEM (Gibco) for 15 min. After that time, the wash was removed, and cells were chased with HaLo-Tag TMR ligand (5 µM, Promega) in Opti-MEM for 15 min. The ligand was then removed, and cells were incubated with Opti-MEM for 30 min. Cells were then trypsinised, resuspended in phosphate-buffered saline (PBS) with 0.5% FBS and analysed using a benchtop flow cytometer (MACSQuant® VYB Flow cytometer Milteny Biotec). For each well, 10000 GFP positive single cells were analysed (gating workflow shown in Supplementary Fig. 18), and TMR mean fluorescence was normalised against a positive control (cells treated with HaLo-Tag TMR ligand but no peptide) and a negative control (non-treated cells). Analysis was performed using FlowJo (LCC) software and Prism GraphPad (Dotmatics). Data were presented as the average ± standard error of three independent replicates.

[1] = test system: hPADI4 expressing mES cells; assay: Cytotoxicity by live cell imaging with Incucyte Cytotox Green Dye
Description: Live cell imaging was performed using an Incucyte® imaging system (Sartorius), using Incucyte® Cytotox Green Dye as per the manufacturer’s instructions.
E. Assessment of cytotoxicity by live cell imaging with Incucyte® Cytotox
Green Dye, as a measure for cell death. hPADI4 expressing mES cells treated with 1 µM
Assessment of cytotoxicity by live cell imaging with Incucyte® Cytotox Green Dye, as a read-
vehicle (0.1%), and imaged for 48 h.

hPADI4 [2] = target: T1, hPADI4 (Homo sapiens, UniProt Q9UM07); assay: COLDER assay, inhibition of PADI4 at 10 mM CaCl2 (substrate BAEE); format: biochemical; details: COLDER, 10 mM CaCl2, peptide 10–0.0003 µM
T1 construct: PADI4 (residues 1–663); Avi-Tag (unbiotinylated); made in house; host or cells: E. coli BL21(DE3) without BirA
Description: (§1) PADI4 activity was assessed using the COLDER assay[43] that measures the formation of urea-containing compounds (e.g. citrulline). The reaction was carried out in a 96-well plate with a final volume of 50 µl. His-PADI4 (50 nM) was incubated with different concentrations of peptides (100 µM to 0.3 nM) in the presence of CaCl2 (from 10 mM to 0.001 mM as specified) for 10 min. The reaction was started by the addition of 10 mM N^α-Benzoyl-L-arginine ethyl ester hydrochloride (BAEE, Merck). After 30 min, the reaction was quenched with EDTA (50 mM final concentration). For colour development, 200 µl of COLDER solution, consisting of 1 volume of solution A (80 mM diacetyl monoxime/2,3-butanedione monoxime (Merck) and 2 mM thiosemicarbazide (Acros Organics)) and 3 volumes of solution B (3 M H3PO4, 6 M H2SO4 and 2 mM NH4Fe(SO4)2) were added to each well and the mixture was heated at 95 °C for 15 min. After cooling to RT, absorbance at 540 nm was measured, and citrulline concentration was determined using a standard curve of citrulline standards. All studies were performed within the linear range of PADI4 activity, and data analysis was performed using Prism GraphPad (Dotmatics). Data are presented as the average ± standard error of the mean from at least two independent replicates.

hPADI4 [3] = target: T1, hPADI4; assay: COLDER assay, activation of PADI4 (calcium titration at fixed peptide, or peptide titration at 0.1 mM CaCl2); format: biochemical; details: 30 µM peptide
Description: as §1

[4] = test system: cellular PADI4 in hPADI4-stable mES cell extracts; assay: Cell lysate activity assay, H3Cit2 immunoblot, with or without pre-incubation before calcium; format: biochemical, mouse; details: inhibitor added 20 mins prior (pre-incubation) or concurrent with calcium
Excerpt: Neutrophil samples were boiled in a sodium dodecyl sulphate (SDS) buffer containing dithiothreitol (DTT) and run on a polyacrylamide gel electrophoresis (SDS-PAGE) using Criterion TGX precast gels (Any-KD; Bio-Rad Laboratories). Proteins were then transferred to a PVDF membrane (Bio-Rad Laboratories) via semi-dry transfer. The membrane was blocked with 5% BSA (Fisher Scientific) in Tris-buffered saline with 0.1% Tween-20 (TBS-T). Levels of citrullinated histone H3, total H3 and myeloperoxidase (MPO) were assessed by incubating membranes in either anti-histone H3 citrulline R2 + R8 + R17 (Abcam; ab5103 1:1000), anti-histone H3 (Millipore; 07-690 1:10000) or anti-MPO (DAKO; A0398 1:2500) overnight at 4 °C, respectively. For cell lysate-based assays and pull-down assays, membranes were incubated as above with anti-hPADI4 (Abcam; ab50332; 1:1000 in 5% BSA/TBS-T), anti-Bcr (Cell Signalling #3902S; 1:1000 in 3% milk/TBS-T) and anti-Impdh2 (Cell Signalling #57068S; 1:1000 in 3% milk/TBS-T). Membranes were washed in 0.1% TBS-T and subsequently incubated with goat anti-rabbit HRP or anti-goat (Fisher Scientific) for 1 h, followed by final washes in 0.1% TBS-T. Membranes were imaged with enhanced chemiluminescent substrate (ECL) (Thermo Fisher) on a Bio-Rad imager.
Supplementary Figure 2. PADI4_3 is a potent and selective hPADI4 inhibitor. A. […]

[5] = CAPA, chloroalkane-tagged peptide, 4 °C, flow cytometry, mean ± SEM of two (PADI4_3) or three (PADI4_11) independent experiments
[6] = CAPA, chloroalkane-tagged peptide, flow cytometry

T1 sequence (Q9UM07 whole entry, the tested form may be a part): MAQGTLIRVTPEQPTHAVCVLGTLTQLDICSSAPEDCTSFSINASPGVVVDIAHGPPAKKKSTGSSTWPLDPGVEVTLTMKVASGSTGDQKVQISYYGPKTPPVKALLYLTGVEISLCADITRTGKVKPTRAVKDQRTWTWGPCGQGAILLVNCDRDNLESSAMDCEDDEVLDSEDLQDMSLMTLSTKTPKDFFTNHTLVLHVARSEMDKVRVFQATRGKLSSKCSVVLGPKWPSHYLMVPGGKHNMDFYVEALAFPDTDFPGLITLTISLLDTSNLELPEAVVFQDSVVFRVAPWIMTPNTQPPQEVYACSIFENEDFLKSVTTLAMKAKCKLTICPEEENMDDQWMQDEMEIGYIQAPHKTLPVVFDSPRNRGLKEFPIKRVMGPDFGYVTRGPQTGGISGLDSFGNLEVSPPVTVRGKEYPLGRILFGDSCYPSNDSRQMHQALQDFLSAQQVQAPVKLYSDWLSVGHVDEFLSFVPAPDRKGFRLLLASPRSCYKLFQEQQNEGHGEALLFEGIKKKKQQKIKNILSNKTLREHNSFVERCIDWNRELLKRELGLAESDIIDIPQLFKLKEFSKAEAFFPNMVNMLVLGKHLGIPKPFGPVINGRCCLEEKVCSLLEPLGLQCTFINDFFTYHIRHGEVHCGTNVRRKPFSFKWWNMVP

CC(C)C[C@H](NC(=O)[C@H](CCC(N)=O)NC(=O)[C@H](CC(C)C)NC(=O)[C@@H](NC(=O)[C@H](CCC(N)=O)NC(=O)[C@H](CCCNC(=N)N)NC(=O)[C@H](Cc1ccc(O)cc1)NC(=O)[C@H](CCCNC(=N)N)NC(=O)[C@@H]1CSCC(=O)N[C@@H](Cc2ccc(O)cc2)C(=O)N[C@@H](CCC(=O)O)C(=O)N[C@@H](CO)C(=O)N1)C(C)C)C(N)=O [PADI4_11] ({CH2CO}-YESCRYRQVLQL-NH2; thioether N-4)
CP50 at 4 °C (HaLo-GFP-mito HeLa cells; [5]): 10.8 ± 4.7 µM
CP50 (HaLo-GFP-mito HeLa cells; [6]): 3.1 ± 1.2 µM
CP50 at 4 °C relative to 37 °C (HaLo-GFP-mito HeLa cells; CAPA): 4 times
cytotoxicity, live cell imaging of cell death ([1]; 25µM peptide, 48 h): not toxic to the cells

N=C(N)NCCC[C@@H]1NC(=O)[C@H](Cc2ccc(O)cc2)NC(=O)[C@H](Cc2c[nH]cn2)NC(=O)[C@H](Cc2c[nH]cn2)NC(=O)[C@H](CC(=O)O)NC(=O)[C@H](CCCNC(=N)N)NC(=O)[C@@H](Cc2ccc(O)cc2)NC(=O)CSC[C@@H](C(=O)NCC(N)=O)NC(=O)[C@H](Cc2ccc(O)cc2)NC(=O)[C@H](CCCCN)NC(=O)[C@@H]2CCCN2C(=O)[C@H](Cc2c[nH]cn2)NC1=O [PADI4_3] ({CH2CO}-[dY]RDHHYRHPKYCG-NH2; thioether N-12)
CP50 at 4 °C (HaLo-GFP-mito HeLa cells; CAPA at 4C, run 220915, in µM (unit assumed)): 11.21
CP50 at 4 °C (HaLo-GFP-mito HeLa cells; CAPA at 4C, run 240501, in µM (unit assumed)): 8.235
CP50 at 4 °C (HaLo-GFP-mito HeLa cells; [5]): 9.7 ± 2.1 µM
CP50 (HaLo-GFP-mito HeLa cells; [6]): 1.4 ± 0.1 µM
CP50 at 4 °C relative to 37 °C (HaLo-GFP-mito HeLa cells; CAPA): 7 times
cytotoxicity ([1]; 1 µM peptide, imaged for 24h): No cytotoxicity was observed

CC[C@H](C)[C@@H]1NC(=O)[C@H](CCCNC(=N)N)NC(=O)[C@H](Cc2ccc(O)cc2)NC(=O)[C@H](Cc2ccccc2)NC(=O)[C@@H](Cc2ccc(O)cc2)NC(=O)CSC[C@@H](C(=O)NCC(N)=O)NC(=O)[C@H](CCC(N)=O)NC(=O)[C@H](Cc2ccc(O)cc2)NC(=O)[C@H](CC(N)=O)NC(=O)[C@@H]2CCCN2C(=O)[C@H](Cc2ccc(O)cc2)NC(=O)[C@H](Cc2c[nH]c3ccccc23)NC(=O)[C@H](Cc2ccccc2)NC(=O)CNC1=O [PADI4_1] ({CH2CO}-[dY]FYRIGFWYPNYQCG-NH2; thioether N-14)
PADI4 inhibition (in words) (hPADI4 [2]): No PADI4 inhibition was observed
change in K50(Ca2+) (in words) (hPADI4 [3]): little change
K50(Ca2+) of PADI4 in presence of peptide (hPADI4 [3]; Fig. 4A, COLDER, CaCl2 10–0.003 mM, mean ± SEM of three independent replicates): 0.359 ± 0.026 mM

COc1cc(C(=O)N2CC[C@@H](O)[C@@H](N)C2)cc2nc(-c3cc4ccccc4n3CC3CC3)n(C)c12 [GSK484]
inhibition of histone 3 citrullination (H3Cit) in cell lysates containing active cellular PADI4 [4]: required pre-incubation to be active
